Our source for the inhibition values is patent publication US6452009B1, “4-unsubstituted dihydroisoquinolinone derivatives and combinatorial libraries thereof” (Lion Bioscience AG, priority 1999, dated 2002).

Structures are written as SMILES.

The test concerns Streptococcus pyogenes (ATCC #97-03 14289). The test can be described thus: Anti-microbial screen (growth inhibition, OD 570 nm). The format is cell-based. As to conditions: ATCC97, compounds assayed at 170 μg/ml, growth in Todd Hewitt Broth read at 570 nm at 4 hrs, read-out: % Inhibition. On the procedure: Streptococcus pyogenes (ATCC #97-03 14289) are grown in Todd Hewitt Broth (THB) (Difco Laboratories #0492-17-6) overnight until they reach an optical density of (OD=0.636@570 nm) by reading 0.1 ml in a 96 well microtiter plate in a Molecular Devices Thermomax. This preparation is kept frozen as stocks in 30% v/v glycerol in 1.5 ml aliquots at −70° C. until use. Prior to screening, 1.5 ml aliquots are thawed and diluted into 50 ml THB. 200 μl of this dilution is added to 92 wells of microtiter plate. To three wells THB (200 μl) is added to serve as a blank and a sterility control. Test compounds in DMSO and appropriate concentrations of DMSO are added to Growth/Solvent Controls at 0 time. Plates are read at 0 time at 570 nm in the Molecular Devices plate reader to obtain compounds correction factors for insoluble or colored compounds. Plates are read again at 4 hrs.
Compounds are assayed at a concentration of 170 μg/ml. Percent inhibition for each compound is calculated using the following formulae:
Color correct=(O.D. 0 hr −Blank 0 hr)—(Solvent Control 0 hr−Blank 0 hr)
% Inhibition=100−(O.D. test compound 4 hr−Blank 4 hr−color correct) divided by (O.D. growth/solvent control 4 hr−Blank 4 hr)
The term inhibition denotes how much of the control response was suppressed. Turning to `CCCCCC/C=C/C(=O)Nc1ccc2c(c1)C(=O)N(CCC(=O)N(CCN(C)C)CC(N)=O)C(c1ccc(SC)cc1)C2` (centres unmarked), the inhibition at 170 µg/mL is 99.9%.

`CN(C)CCN(CC(N)=O)C(=O)c1ccc(CN2C(=O)c3cc(NC(=O)CCC4CCCC4)ccc3CC2c2ccc(F)c(F)c2)cc1` (centres unmarked): the inhibition at 170 µg/mL turned out to be 99.9%.

Consider `CN(C)CCN(CC(N)=O)C(=O)CCN1C(=O)c2cc(NC(=O)c3cccc(C(F)(F)F)c3F)ccc2CC1c1ccc(C(F)(F)F)cc1` (centres unmarked), for which the inhibition at 170 µg/mL is 99.9%.

In the case of `CN(C)CCCOc1ccc(C2Cc3ccc(NC(=O)Cc4cccc(C(F)(F)F)c4)cc3C(=O)N2CCC(=O)N(CC(N)=O)C2CC2)cc1` (centres unmarked), the inhibition at 170 µg/mL amounted to 99.9%.

On to `CN(C)CCCOc1ccc(C2Cc3ccc(NC(=O)c4ccc(I)cc4)cc3C(=O)N2CCC(=O)N(CCN(C)C)CC(N)=O)cc1` (centres unmarked), for which the inhibition at 170 µg/mL turned out to be 99.8%.

For `CN(C)CCCOc1ccc(C2Cc3ccc(NC(=O)Cc4cccc(C(F)(F)F)c4)cc3C(=O)N2CCC(=O)N(CCN(C)C)CC(N)=O)cc1` (centres unmarked), the inhibition at 170 µg/mL worked out at 99.8%.

For the molecule `CCCN(CC(N)=O)C(=O)c1ccc(CN2C(=O)c3cc(NC(=O)c4ccc(OC(F)(F)F)cc4)ccc3CC2c2ccc(OCCCN(C)C)cc2)cc1` (centres unmarked), the inhibition at 170 µg/mL was 99.7%.

For the molecule `CC(CC(=O)Nc1ccc2c(c1)C(=O)N(CCC(=O)N(CC(N)=O)C1CC1)C(c1ccc(F)c(F)c1)C2)CC(C)(C)C` (centres unmarked), the inhibition at 170 µg/mL was found to be 99.7%.

For the molecule `CN(C)CCCOc1ccc(C2Cc3ccc(NC(=O)COc4ccc5ccccc5c4)cc3C(=O)N2CCC(=O)N(CC(N)=O)Cc2cccc(C(F)(F)F)c2)cc1` (centres unmarked), the inhibition at 170 µg/mL was 99.6%.

With `CN(C)CCCOc1ccc(C2Cc3ccc(NC(=O)c4cccc(C(F)(F)F)c4F)cc3C(=O)N2Cc2ccc(C(=O)N(CC(N)=O)Cc3cccc(C(F)(F)F)c3)cc2)cc1` (centres unmarked), the inhibition at 170 µg/mL was determined as 99.6%.

Regarding `CN(C)CCN(CC(N)=O)C(=O)c1ccc(CN2C(=O)c3cc(NC(=O)CCC4CCCCC4)ccc3CC2c2ccc(C(F)(F)F)cc2)cc1` (centres unmarked), the inhibition at 170 µg/mL stood at 99.6%.

Regarding `CN(C)CCN(CC(N)=O)C(=O)c1ccc(CN2C(=O)c3cc(NC(=O)CC4CC5CCC4C5)ccc3CC2c2cccc3ccccc23)cc1` (centres unmarked), the inhibition at 170 µg/mL amounted to 99.5%.

Take `CSc1ccc(C2Cc3ccc(NC(=O)CC(C)CC(C)(C)C)cc3C(=O)N2Cc2ccc(C(=O)N(CCN(C)C)CC(N)=O)cc2)cc1` (centres unmarked): the inhibition at 170 µg/mL turned out to be 99.5%.

As to `CN(C)CCN(CC(N)=O)C(=O)CCN1C(=O)c2cc(NC(=O)C3(c4ccccc4)CC3)ccc2CC1c1ccccc1` (centres unmarked), the inhibition at 170 µg/mL stood at 99.5%.

`CN(C)CCN(CC(N)=O)C(=O)c1ccc(CN2C(=O)c3cc(NC(=O)c4ccc(OC(F)(F)F)cc4)ccc3CC2c2cccc(C#N)c2)cc1` (centres unmarked): the inhibition at 170 µg/mL turned out to be 99.5%.

On to `CN(C)CCN(CC(N)=O)C(=O)c1ccc(CN2C(=O)c3cc(NC(=O)c4cccc(C(F)(F)F)c4F)ccc3CC2c2cccc(C#N)c2)cc1` (centres unmarked), for which the inhibition at 170 µg/mL stood at 99.5%.

On to `COc1cc(OC)cc(C2Cc3ccc(NC(=O)c4ccc(OC(F)(F)F)cc4)cc3C(=O)N2CCC(=O)N(CCN(C)C)CC(N)=O)c1` (centres unmarked), for which the inhibition at 170 µg/mL turned out to be 99.5%.

Turning to `COc1cc(OC)cc(C2Cc3ccc(NC(=O)c4ccc(F)c(F)c4)cc3C(=O)N2CCC(=O)N(CCN(C)C)CC(N)=O)c1` (centres unmarked), the inhibition at 170 µg/mL is 99.5%.

`COc1cc(OC)cc(C2Cc3ccc(NC(=O)C(=O)c4c(C)cc(C)cc4C)cc3C(=O)N2CCC(=O)N(CCN(C)C)CC(N)=O)c1` (centres unmarked): the inhibition at 170 µg/mL was found to be 99.5%.

Turning to `COc1cc(OC)cc(C2Cc3ccc(NC(=O)CCC4CCCC4)cc3C(=O)N2CCC(=O)N(CCN(C)C)CC(N)=O)c1` (centres unmarked), the inhibition at 170 µg/mL worked out at 99.5%.

For the molecule `CN(C)CCN(CC(N)=O)C(=O)CCN1C(=O)c2cc(NC(=O)CC3CCCC3)ccc2CC1c1ccc(C(C)(C)C)cc1` (centres unmarked), the inhibition at 170 µg/mL amounted to 99.5%.

For the molecule `CCCC(CCC)C(=O)Nc1ccc2c(c1)C(=O)N(Cc1ccc(C(=O)N(CC(N)=O)Cc3ccccc3)cc1)C(c1ccc(OCCCN(C)C)cc1)C2` (centres unmarked), the inhibition at 170 µg/mL worked out at 99.5%.

With `CN(C)CCCOc1ccc(C2Cc3ccc(NC(=O)CCC4CCCC4)cc3C(=O)N2Cc2ccc(C(=O)N(CC(N)=O)Cc3ccccc3)cc2)cc1` (centres unmarked), the inhibition at 170 µg/mL is 99.5%.

`CN(C)CCN(CC(N)=O)C(=O)CCN1C(=O)c2cc(NC(=O)c3ccc(I)cc3)ccc2CC1c1ccc2ccccc2n1` (centres unmarked): the inhibition at 170 µg/mL worked out at 99.5%.

As to `CN(C)CCN(CC(N)=O)C(=O)c1ccc(CN2C(=O)c3cc(NC(=O)c4ccc(OC(F)(F)F)cc4)ccc3CC2c2ccccn2)cc1` (centres unmarked), the inhibition at 170 µg/mL was determined as 99.5%.

On to `COc1ccc(Br)c(C(=O)Nc2ccc3c(c2)C(=O)N(Cc2ccc(C(=O)N(CCN(C)C)CC(N)=O)cc2)C(c2ccc(F)c(F)c2)C3)c1` (centres unmarked), for which the inhibition at 170 µg/mL is 99.5%.

Consider `CCCCCC(=O)Nc1ccc2c(c1)C(=O)N(CCC(=O)N(CC(N)=O)Cc1cccc(C(F)(F)F)c1)C(c1ccc(C(C)(C)C)cc1)C2` (centres unmarked), for which the inhibition at 170 µg/mL is 99.4%.

Turning to `CCCCCC/C=C/C(=O)Nc1ccc2c(c1)C(=O)N(CCC(=O)N(CCN(C)C)CC(N)=O)C(c1ncc[nH]1)C2` (centres unmarked), the inhibition at 170 µg/mL is 99.4%.

Regarding `COc1ccc(Br)c(C(=O)Nc2ccc3c(c2)C(=O)N(Cc2ccc(C(=O)N(CC(N)=O)Cc4cccc(C(F)(F)F)c4)cc2)C(c2ccc(OCCCN(C)C)cc2)C3)c1` (centres unmarked), the inhibition at 170 µg/mL is 99.4%.

Regarding `CCCC(CCC)C(=O)Nc1ccc2c(c1)C(=O)N(Cc1ccc(C(=O)N(CCN(C)C)CC(N)=O)cc1)C(c1cc(OC)cc(OC)c1)C2` (centres unmarked), the inhibition at 170 µg/mL was 99.3%.

`CC(CC(=O)Nc1ccc2c(c1)C(=O)N(Cc1ccc(C(=O)N(CC(N)=O)Cc3cccc(C(F)(F)F)c3)cc1)C(c1ccc(F)c(F)c1)C2)CC(C)(C)C` (centres unmarked): the inhibition at 170 µg/mL was determined as 99.3%.

Regarding `COc1cc(OC)cc(C2Cc3ccc(NC(=O)Cc4cccc(C(F)(F)F)c4)cc3C(=O)N2Cc2ccc(C(=O)N(CCN(C)C)CC(N)=O)cc2)c1` (centres unmarked), the inhibition at 170 µg/mL came to 99.2%.

Consider `CN(C)CCN(CC(N)=O)C(=O)CCN1C(=O)c2cc(NC(=O)CC3CC4CCC3C4)ccc2CC1c1ccc(C(F)(F)F)cc1` (centres unmarked), for which the inhibition at 170 µg/mL was 99.2%.

Consider `CN(C)CCN(CC(N)=O)C(=O)CCN1C(=O)c2cc(NC(=O)c3cccc(C(F)(F)F)c3F)ccc2CC1c1ccccc1` (centres unmarked), for which the inhibition at 170 µg/mL turned out to be 99.2%.

As to `CN(C)CCN(CC(N)=O)C(=O)CCN1C(=O)c2cc(NC(=O)c3ccc(I)cc3)ccc2CC1c1ccccn1` (centres unmarked), the inhibition at 170 µg/mL was found to be 99.2%.

Regarding `CN(C)CCN(CC(N)=O)C(=O)CCN1C(=O)c2cc(NC(=O)COc3ccc4ccccc4c3)ccc2CC1c1ccc(F)c(F)c1` (centres unmarked), the inhibition at 170 µg/mL worked out at 99.2%.

`CN(C)CCN(CC(N)=O)C(=O)CCN1C(=O)c2cc(NC(=O)c3cc(C(F)(F)F)cc(C(F)(F)F)c3)ccc2CC1c1ccc(F)c(F)c1` (centres unmarked): the inhibition at 170 µg/mL turned out to be 99.2%.

For `NC(=O)CN(Cc1cccc(C(F)(F)F)c1)C(=O)CCN1C(=O)c2cc(NC(=O)CC3CC4CCC3C4)ccc2CC1c1cccnc1` (centres unmarked), the inhibition at 170 µg/mL was 99.2%.

Take `Cc1ccc(C2Cc3ccc(NC(=O)COc4ccc5ccccc5c4)cc3C(=O)N2CCC(=O)N(CCN(C)C)CC(N)=O)cc1` (centres unmarked): the inhibition at 170 µg/mL was determined as 99.2%.

Regarding `Cc1ccc(C2Cc3ccc(NC(=O)c4cc(C(F)(F)F)cc(C(F)(F)F)c4)cc3C(=O)N2CCC(=O)N(CCN(C)C)CC(N)=O)cc1` (centres unmarked), the inhibition at 170 µg/mL was 99.2%.

As for `Cc1cc(C)c(C(=O)C(=O)Nc2ccc3c(c2)C(=O)N(CCC(=O)N(CCN(C)C)CC(N)=O)C(c2ccc4ccccc4n2)C3)c(C)c1` (centres unmarked), the inhibition at 170 µg/mL was determined as 99.2%.

Take `Cc1cc(C)c(C(=O)C(=O)Nc2ccc3c(c2)C(=O)N(Cc2ccc(C(=O)N(CCN(C)C)CC(N)=O)cc2)C(c2ccc4ccccc4n2)C3)c(C)c1` (centres unmarked): the inhibition at 170 µg/mL is 99.2%.

Turning to `Cc1ccc2oc(C(=O)Nc3ccc4c(c3)C(=O)N(CCC(=O)N(CC(N)=O)Cc3cccc(C(F)(F)F)c3)C(c3ccc(F)c(F)c3)C4)cc(=O)c2c1` (centres unmarked), the inhibition at 170 µg/mL was 99.2%.

As to `CN(C)CCN(CC(N)=O)C(=O)c1ccc(CN2C(=O)c3cc(NC(=O)CC4CC5CCC4C5)ccc3CC2c2ccc(C(F)(F)F)cc2)cc1` (centres unmarked), the inhibition at 170 µg/mL worked out at 98.1%.
